Patent US20240059689A1, “PURINE DERIVATIVES AS ANTICANCER AGENTS” (Tango Therapeutics, Inc., priority 2021, published 2024)

How the values were obtained:
[1] = test system: HCC1954; experiment: Viability assay, BRCA1 WT cell line HCC1954; format: cell-based; details: Homo sapiens, HCC1954, viability, read-out: HCC1954 rel IC50
Text: (§1) Table 1 also indicates IC50 values in a viability assay for a non-isogenic pair of BRCA1 mutant (column 5-MDA-MB-436) and BRCA1 WT (column 6—HCC1954) cell lines. These values indicate the effect of treatment with compound on cell survival.

[2] = test system: MDA-MB-436; experiment: Viability assay, BRCA1 mutant cell line MDA-MB-436; format: cell-based; details: Homo sapiens, MDA-MB-436, viability, BRCA1 mutant MDA-MB-436; read-out: MDA-MB-436 rel IC50
Text: as §1

[3] = biological target: USP1-UAF1 (Homo sapiens, UniProt O94782); experiment: Ubiquitin Rhodamine assay of USP1-UAF1 activity; format: biochemical
Method: Certain compounds of the disclosure were assessed for USP1-UAF1 activity in a Ubiquitin Rhodamine assay as described in Biology Example 1.

[4] = test system: monoubiquitinated PCNA; experiment: AlphaLISA assay measuring monoubiquitinated PCNA in MDA-MB-436; format: cell-based; details: Homo sapiens, MDA-MB-436, monoubiquitinated PCNA, read-out: Alpha Lisa IC50
Text: Table 1 also indicates IC50 values for exemplary compounds in an AlphaLISA assay measuring monoubiquitinated PCNA in a BRCA1 mutant cell line (MDA-MB-436; column 7).

USP1-UAF1, sequence (O94782 whole entry): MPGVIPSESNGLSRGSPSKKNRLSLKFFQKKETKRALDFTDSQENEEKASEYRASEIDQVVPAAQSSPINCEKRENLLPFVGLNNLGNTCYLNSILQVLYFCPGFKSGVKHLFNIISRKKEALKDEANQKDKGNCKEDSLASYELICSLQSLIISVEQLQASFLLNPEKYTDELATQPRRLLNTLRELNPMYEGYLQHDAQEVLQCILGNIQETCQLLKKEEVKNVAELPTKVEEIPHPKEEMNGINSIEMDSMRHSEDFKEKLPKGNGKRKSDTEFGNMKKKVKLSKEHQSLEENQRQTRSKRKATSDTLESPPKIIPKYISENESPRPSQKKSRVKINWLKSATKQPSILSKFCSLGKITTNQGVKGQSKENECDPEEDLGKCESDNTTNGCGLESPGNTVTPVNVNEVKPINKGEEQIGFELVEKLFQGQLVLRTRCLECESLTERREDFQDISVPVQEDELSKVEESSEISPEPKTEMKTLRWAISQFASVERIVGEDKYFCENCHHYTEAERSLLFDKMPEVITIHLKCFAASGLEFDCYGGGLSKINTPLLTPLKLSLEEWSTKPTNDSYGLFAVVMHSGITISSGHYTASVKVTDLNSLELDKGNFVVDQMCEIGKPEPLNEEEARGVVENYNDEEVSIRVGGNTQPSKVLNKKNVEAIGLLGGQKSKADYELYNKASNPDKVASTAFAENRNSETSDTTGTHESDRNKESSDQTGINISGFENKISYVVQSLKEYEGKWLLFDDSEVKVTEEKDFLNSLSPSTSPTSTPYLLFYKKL
USP1-UAF1, sequence (Q8TAF3 whole entry partner): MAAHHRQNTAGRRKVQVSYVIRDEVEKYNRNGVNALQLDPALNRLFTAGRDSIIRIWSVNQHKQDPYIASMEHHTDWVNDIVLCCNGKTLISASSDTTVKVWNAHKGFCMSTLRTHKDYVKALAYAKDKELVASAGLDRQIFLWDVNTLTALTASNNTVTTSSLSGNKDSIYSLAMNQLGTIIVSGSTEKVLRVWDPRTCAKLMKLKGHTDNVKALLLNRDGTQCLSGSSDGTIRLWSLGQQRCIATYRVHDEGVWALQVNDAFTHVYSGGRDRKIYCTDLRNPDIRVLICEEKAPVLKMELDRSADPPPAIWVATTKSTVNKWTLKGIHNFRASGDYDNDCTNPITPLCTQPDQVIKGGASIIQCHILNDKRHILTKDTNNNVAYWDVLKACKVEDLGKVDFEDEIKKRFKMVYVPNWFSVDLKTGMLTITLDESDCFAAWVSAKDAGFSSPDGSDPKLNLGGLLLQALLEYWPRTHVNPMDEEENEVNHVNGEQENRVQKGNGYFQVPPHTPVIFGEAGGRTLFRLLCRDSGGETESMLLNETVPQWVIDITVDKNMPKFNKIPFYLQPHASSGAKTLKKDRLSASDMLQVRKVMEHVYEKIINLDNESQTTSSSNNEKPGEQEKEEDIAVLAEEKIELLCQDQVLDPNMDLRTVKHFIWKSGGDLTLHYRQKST

IC50 [1] [nM] | IC50 [2] [nM] | IC50 [3] [nM] | IC50 [4] [nM] | SMILES
≥ 10000 | < 100 | < 30 | < 100 | C=C(C)c1ccccc1-c1ncc2c(n1)n(Cc1ccc(-c3nc(C(F)(F)F)cn3C)cc1)c(=N)n2C [Example B-4, 7-methyl-9-(4-(1-methyl-4-(trifluoromethyl)-1H-imidazol-2-yl)benzyl)-2-(2-(prop-1-en-2-yl)phenyl)-7,9-dihydro-8H-purin-8-imine]
250 to 10000 | < 100 | < 30 | < 100 | Cc1nc(-c2ccccc2C(C)C)nc2c1n(C)c(=N)n2Cc1ccc(-c2nc(C(F)(F)F)cn2C)cc1 [Example A-8, 2-(2-isopropylphenyl)-6,7-dimethyl-9-(4-(1-methyl-4-(trifluoromethyl)-1H-imidazol-2-yl)benzyl)-7,9-dihydro-8H-purin-8-imine]
≥ 10000 | 250 to 10000 | 100 to 10000 | 250 to 10000 | Cn1cc(C(F)(F)F)nc1-c1ccc(Cn2c(=N)n(C)c3cnc(-c4cccnc4OCC(C)(C)C)nc32)cc1 [Example T-064]
≥ 10000 | 250 to 10000 | 30 to 100 | 100 to 250 | CC(C)c1ccccc1-c1ncc2c(n1)n(Cc1ccc(-c3nc(C(F)(F)F)cn3C)cc1Cl)c(=N)n2C [Example T-047]
≥ 10000 | < 100 | 30 to 100 | < 100 | COc1ncnc(C2CC2)c1-c1ncc2c(n1)n(Cc1ccc(-c3nc(C(F)(F)F)cn3C)cc1)c(=N)n2CC(F)(F)F [Example T-095, 2-(4-cyclopropyl-6-methoxy-pyrimidin-5-yl)-9-[[4-[1-methyl-4-(trifluoromethyl)imidazol-2-yl]phenyl]methyl]-7-(2,2,2-trifluoroethyl)purin-8-imine]
≥ 10000 | ≥ 10000 | 100 to 10000 | 250 to 10000 | COc1ncccc1-c1ncc2c(n1)n(Cc1ccc(-c3nc(C(F)(F)F)cn3CC(F)F)cc1)c(=N)n2C [Example T-060]
≥ 10000 | < 100 | 30 to 100 | < 100 | COc1nc(C)nc(C2CC2)c1-c1ncc2c(n1)n(Cc1ccc(-c3nc(C(F)(F)F)cn3C)cc1)c(=N)n2C [Example T-146, 2-(4-cyclopropyl-6-methoxy-2-methyl-pyrimidin-5-yl)-7-methyl-9-[[4-[1-methyl-4-(trifluoromethyl)imidazol-2-yl]phenyl]methyl]purin-8-imine]
250 to 10000 | 250 to 10000 | 100 to 10000 | 250 to 10000 | COc1nc(C#N)ccc1-c1ncc2c(n1)n(Cc1ccc(-c3nc(C(F)(F)F)cn3C)cc1)c(=N)n2C [Example T-085]
≥ 10000 | 100 to 250 | 100 to 10000 | < 100 | COc1ncnc(C2CC2)c1-c1ncc2c(n1)n(Cc1ccc(-c3nc(C(F)(F)F)cn3C)cc1)c(=N)n2C [Example T-019, 2-(4-cyclopropyl-6-methoxy-pyrimidin-5-yl)-7-methyl-9-[[4-[1-methyl-4-(trifluoromethyl)imidazol-2-yl]phenyl]methyl]purin-8-imine]
≥ 10000 | < 100 | < 30 | < 100 | CCOc1cc(C(F)(F)F)nn1-c1ccc(Cn2c(=N)n(C)c3cnc(-c4c(OC)ncnc4C4CC4)nc32)cc1 [Example T-094]
250 to 10000 | < 100 | < 30 | < 100 | Cc1nc(-c2ccccc2C(C)C)nc2c1n(C)c(=N)n2Cc1ccc(-c2nc(Cl)cn2C)cc1 [Example A-38, 9-(4-(4-chloro-1-methyl-1H-imidazol-2-yl)benzyl)-2-(2-isopropylphenyl)-6,7-dimethyl-7,9-dihydro-8H-purin-8-imine]
≥ 10000 | < 100 | 30 to 100 | < 100 | COc1ncnc(C2CC2(F)F)c1-c1ncc2c(n1)n(Cc1ccc(-c3nc(C(F)(F)F)cn3C)cc1)c(=N)n2C (centres unmarked) [Example T-111, 2-(4-(2,2-difluorocyclopropyl)-6-methoxypyrimidin-5-yl)-7-methyl-9-(4-(1-methyl-4-(trifluoromethyl)-1H-imidazol-2-yl)benzyl)-7H-purin-8(9H)-imine]
≥ 10000 | 250 to 10000 | 100 to 10000 | 250 to 10000 | CCn1cc(C(F)(F)F)nc1-c1ccc(Cn2c(=N)n(C)c3cnc(-c4cccnc4OC)nc32)cc1 [Example T-057]
250 to 10000 | 250 to 10000 | 30 to 100 | 250 to 10000 | CC(C)c1ccccc1-c1nc(-c2ccccc2C(C)C)c2c(n1)n(Cc1ccc(-c3nc(C(F)(F)F)cn3C)cc1)c(=N)n2C (single isomer, unassigned) [Example A-22b, 2,6-bis(2-isopropylphenyl)-7-methyl-9-(4-(1-methyl-4-(trifluoromethyl)-1H-imidazol-2-yl)benzyl)-7,9-dihydro-8H-purin-8-imine]
250 to 10000 | 100 to 250 | 30 to 100 | 250 to 10000 | Cc1cccc(-c2ncc3c(n2)n(Cc2ccc(-c4nc(C(F)(F)F)cn4C)cc2)c(=N)n3C)c1C(C)C [Example T-002, 2-(2-isopropyl-3-methyl-phenyl)-7-methyl-9-[[4-[1-methyl-4-(trifluoromethyl)imidazol-2-yl]phenyl]methyl]purin-8-imine]
≥ 10000 | 100 to 250 | 30 to 100 | 100 to 250 | COc1ncnc(C(F)(F)F)c1-c1ncc2c(n1)n(Cc1ccc(-c3nc(C(F)(F)F)cn3C)cc1)c(=N)n2CC(F)(F)F [Example T-144, 2-[4-methoxy-6-(trifluoromethyl)pyrimidin-5-yl]-9-[[4-[1-methyl-4-(trifluoromethyl)imidazol-2-yl]phenyl]methyl]-7-(2,2,2-trifluoroethyl)purin-8-imine]
≥ 10000 | < 100 | 30 to 100 | < 100 | COc1ncnc(C2CC2)c1-c1ncc2c(n1)n(Cc1ccc(-n3nc(C(F)(F)F)cc3OC)cc1)c(=N)n2CC(F)(F)F [Example T-117, 2-(4-cyclopropyl-6-methoxy-pyrimidin-5-yl)-9-[[4-[5-methoxy-3-(trifluoromethyl)pyrazol-1-yl]phenyl]methyl]-7-(2,2,2-trifluoroethyl)purin-8-imine]
250 to 10000 | 250 to 10000 | 30 to 100 | 250 to 10000 | C=C(C)c1ccc(F)cc1-c1nc(C)c2c(n1)n(Cc1ccc(-c3nc(Cl)cn3C)cc1)c(=N)n2C [Example A-44, 9-(4-(4-chloro-1-methyl-1H-imidazol-2-yl)benzyl)-2-(5-fluoro-2-(prop-1-en-2-yl)phenyl)-6,7-dimethyl-7,9-dihydro-8H-purin-8-imine]
≥ 10000 | < 100 | 100 to 10000 | 100 to 250 | CC(C)c1ccccc1-c1ncc2c(n1)n(Cc1ccc(-c3nc(C(F)(F)F)cn3C3CN(C)C3)cc1)c(=N)n2C [Example T-099, 2-(2-isopropylphenyl)-7-methyl-9-(4-(1-(1-methylazetidin-3-yl)-4-(trifluoromethyl)-1H-imidazol-2-yl)benzyl)-7H-purin-8(9H)-imine]
250 to 10000 | 250 to 10000 | 30 to 100 | 250 to 10000 | Cc1ccc(C(C)C)c(-c2ncc3c(n2)n(Cc2ccc(-c4nc(C(F)(F)F)cn4C)cc2)c(=N)n3C)c1 [Example T-018, 2-(2-isopropyl-5-methyl-phenyl)-7-methyl-9-[[4-[1-methyl-4-(trifluoromethyl)imidazol-2-yl]phenyl]methyl]purin-8-imine]
≥ 10000 | 250 to 10000 | 100 to 10000 | 250 to 10000 | COCCn1cc(C(F)(F)F)nc1-c1ccc(Cn2c(=N)n(C)c3cnc(-c4ccccc4C(F)(F)F)nc32)cc1 [Example T-066]
≥ 10000 | < 100 | 30 to 100 | < 100 | COc1ncnc(C2CC2)c1-c1ncc2c(n1)n(Cc1ccc(-c3nc(C(F)(F)F)cn3C(C)C)cc1)c(=N)n2CC(F)(F)F [Example T-108]
≥ 10000 | < 100 | < 30 | < 100 | COc1cc(C(F)(F)F)nn1-c1ccc(Cn2c(=N)n(CC(F)(F)F)c3cnc(-c4c(C)cnn4C(C)C)nc32)cc1 [Example T-124, 2-(2-isopropyl-4-methyl-pyrazol-3-yl)-9-[[4-[5-methoxy-3-(trifluoromethyl)pyrazol-1-yl]phenyl]methyl]-7-(2,2,2-trifluoroethyl)purin-8-imine]
≥ 10000 | 250 to 10000 | 30 to 100 | 250 to 10000 | Cn1cc(C(F)(F)F)nc1-c1ccc(Cn2c(=N)n(C)c3cnc(-c4c(Cl)cnn4C)nc32)cc1 [Example T-067]
≥ 10000 | < 100 | 30 to 100 | < 100 | Cn1cc(C(F)(F)F)nc1-c1ccc(Cn2c(=N)n(C)c3cnc(-c4c(OC(F)(F)F)ccnc4C4CC4)nc32)cc1 [Example T-140, 2-[2-cyclopropyl-4-(trifluoromethoxy)-3-pyridyl]-7-methyl-9-[[4-[1-methyl-4-(trifluoromethyl)imidazol-2-yl]phenyl]methyl]purin-8-imine]
250 to 10000 | < 100 | < 30 | < 100 | CCn1c(=N)n(Cc2ccc(-c3nc(C(F)(F)F)cn3C)cc2)c2nc(-c3ccccc3C(C)C)ncc21 [Example A-14, 7-ethyl-2-(2-isopropylphenyl)-9-(4-(1-methyl-4-(trifluoromethyl)-1H-imidazol-2-yl)benzyl)-7,9-dihydro-8H-purin-8-imine]
